pEC50: −log10 of the molar value. Several values for one entry are separate records, joined by “and”; a condition that tells them apart may be missing. Equal entries are not always repeated. Where two headings read alike, the source gives them in different places.
Key:
eotaxin-3 release = assay: Human whole blood eotaxin-3 assay (IL-4 stimulated); format: cell-based; settings: for pEC50: human whole blood, IL-4 0.4 nM, 48 hours, geometric mean, given for compounds with >80% Emax, read-out: Eotaxin-3 EC50
Method: Human Whole Blood Eotaxin-3 Assay
This was a human whole blood assay using recombinant human Interleukin 4 to stimulate the blood and measuring the ability of the test compounds to inhibit eotaxin-3 release. Compounds or media were added to the wells and incubated together with human whole blood for 120 minutes at 37° C. Subsequently, recombinant IL-4 was added at a final concentration of 0.4 nM. The plates were incubated for 48 hours.
Test compounds which inhibited eotaxin-3 release upon stimulation with human IL-4 (E. coli) interfered with the signaling in human whole blood are expected to have activity in human beings. […] The EC50 value indicates at which concentration test compounds were active and in inhibiting the eotaxin-3 release. As eotaxin-3 release is down-stream of STAT6 signaling both STAT6 inhibitors and STAT6 degraders are active in this assay.
The data from the human whole blood eotaxin-3 assay is shown below for Examples 3e27, 3e50, 3e17, and 3e51 (where the effect in % is plotted against the test concentration in M on a log-scale).

STAT6 = STAT6 (Homo sapiens (Human), UniProt P42226); assay: STAT6 degrader assay (HiBiT, HeLa LgBiT clone 4.14); format: cell-based
Sequence of STAT6 (P42226 whole entry): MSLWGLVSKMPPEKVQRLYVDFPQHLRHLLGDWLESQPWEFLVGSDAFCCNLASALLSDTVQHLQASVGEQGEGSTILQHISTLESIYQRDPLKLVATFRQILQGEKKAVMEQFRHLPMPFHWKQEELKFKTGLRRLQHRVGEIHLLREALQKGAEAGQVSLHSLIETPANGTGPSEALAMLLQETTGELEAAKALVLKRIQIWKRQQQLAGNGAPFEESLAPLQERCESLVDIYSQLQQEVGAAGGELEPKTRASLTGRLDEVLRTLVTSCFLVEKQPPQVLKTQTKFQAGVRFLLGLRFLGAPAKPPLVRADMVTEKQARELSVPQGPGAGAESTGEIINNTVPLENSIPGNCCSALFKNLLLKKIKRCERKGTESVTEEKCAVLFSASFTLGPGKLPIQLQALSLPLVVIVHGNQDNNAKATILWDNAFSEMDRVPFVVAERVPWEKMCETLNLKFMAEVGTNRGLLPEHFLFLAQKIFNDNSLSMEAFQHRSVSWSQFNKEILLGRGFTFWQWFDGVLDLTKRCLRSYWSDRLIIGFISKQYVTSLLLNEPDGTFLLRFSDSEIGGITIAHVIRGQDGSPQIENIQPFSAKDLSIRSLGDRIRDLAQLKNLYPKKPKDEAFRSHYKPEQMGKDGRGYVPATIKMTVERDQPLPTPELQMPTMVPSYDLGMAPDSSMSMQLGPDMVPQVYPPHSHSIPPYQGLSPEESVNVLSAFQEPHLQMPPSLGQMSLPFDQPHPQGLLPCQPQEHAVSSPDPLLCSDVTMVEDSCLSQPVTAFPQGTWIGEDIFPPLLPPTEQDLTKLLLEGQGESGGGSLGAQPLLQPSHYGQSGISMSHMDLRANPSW
Method in brief: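 HeLa LgBiT clone 4.14 cells with HiBiT knocked into endogenous STAT6 were treated with compound for 4-24 h at 37° C. Luminescence after Nano-GLO substrate (0.5 h) measured remaining STAT6; 50 μM terfenadine wells defined 100% degradation, and DC50 (nM) was derived.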

[1] = HeLa LgBiT clone 4.14, 4-24 h; geometric mean; given for compounds with >80% Emax; read-out: STAT6 degradation DC50

SMILES | pEC50 (eotaxin-3 release) | DC50 (STAT6; [1]) | EC50 (eotaxin-3 release; Homo sapiens, 48 h, read-out: Eotaxin-3 EC50 (nM)) [nM] | DC50 (STAT6; read-out: STAT6 degradation DC50; HeLa LgBiT clone 4.14, 4-24 h; geometric mean; given for compounds with >80% Emax) [nM]
C[C@@H](c1cc2c(-c3ccc(N)nc3)ccnc2n1C)N1CCC(c2ccc(C(=O)N3CCC(CN4CCN(Cc5cc6c(cc5F)N(C5CCC(=O)NC5=O)C(=O)C65CC5)CC4)CC3)cc2)CC1 (stereo partly drawn) [Example 3h9, 3-(5′-((4-((1-(4-(1-((S)-1-(4-(6-aminopyridin-3-yl)-1-methyl-1H-pyrrolo[2,3-b]pyridin-2-yl)ethyl)piperidin-4-yl)benzoyl)piperidin-4-yl)methyl)piperazin-1-yl)methyl)-6′-fluoro-2′-oxospiro[cyclopropane-1,3′-indolin]-1′-yl)piperidine-2,6-dione] | 7.36 | 12.7 nM |  | 
C[C@@H](c1cc2c(-c3ccc(N)nc3)ccnc2n1C)N1CCC(c2ccc(C(=O)N3CCC(CC4CCN(c5ccc6c(c5)C5(CC5)C(=O)N6C5CCC(=O)NC5=O)CC4)CC3)cc2)CC1 (stereo partly drawn) [Example 3h13, 3-(5′-(4-((1-(4-(1-((S)-1-(4-(6-aminopyridin-3-yl)-1-methyl-1H-pyrrolo[2,3-b]pyridin-2-yl)ethyl)piperidin-4-yl)benzoyl)piperidin-4-yl)methyl)piperidin-1-yl)-2′-oxospiro[cyclopropane-1,3′-indolin]-1′-yl)piperidine-2,6-dione] | 7.63 | 48.7 nM |  | 
C[C@H]1CN(Cc2ccc3c(c2)n(C)c(=O)n3C2CCC(=O)NC2=O)CCN1CC1CCN(C(=O)c2ccc(C3CCN([C@@H](C)c4cc5c(-c6ncc(N)cc6F)ccnc5n4C)CC3)cc2)CC1 (stereo partly drawn) [Example 3e38, 3-(5-(((S)-4-((1-(4-(1-((S)-1-(4-(5-amino-3-fluoropyridin-2-yl)-1-methyl-1H-pyrrolo[2,3-b]pyridin-2-yl)ethyl)piperidin-4-yl)benzoyl)piperidin-4-yl)methyl)-3-methylpiperazin-1-yl)methyl)-3-methyl-2-oxo-2,3-dihydro-1H-benzo[d]imidazol-1-yl)piperidine-2,6-dione] | 8.11 | 1 nM |  | 
C[C@@H](c1cc2c(-c3ccc(N)nc3)ccnc2n1C)N1CCC(c2ccc(C(=O)N3CCC(CN4CCN(Cc5ccc6c(c5)n(C)c(=O)n6C5CCC(=O)NC5=O)CC4C(F)(F)F)CC3)cc2)CC1 (stereo partly drawn) [Example 3e31, 3-(5-((4-((1-(4-(1-((S)-1-(4-(6-aminopyridin-3-yl)-1-methyl-1H-pyrrolo[2,3-b]pyridin-2-yl)ethyl)piperidin-4-yl)benzoyl)piperidin-4-yl)methyl)-3-(trifluoromethyl)piperazin-1-yl)methyl)-3-methyl-2-oxo-2,3-dihydro-1H-benzo[d]imidazol-1-yl)piperidine-2,6-dione] | 8.03 | 2 nM |  | 
C[C@@H](c1cc2c(-c3ccc(N)nc3)ccnc2n1C)N1CCC(c2ccc(C(=O)N3CCC(F)(CN4CCN(Cc5ccc6c(c5)n(C)c(=O)n6C5CCC(=O)NC5=O)CC4)CC3)cc2)CC1 (stereo partly drawn) [Example 3e32, 3-(5-((4-((1-(4-(1-((S)-1-(4-(6-aminopyridin-3-yl)-1-methyl-1H-pyrrolo[2,3-b]pyridin-2-yl)ethyl)piperidin-4-yl)benzoyl)-4-fluoropiperidin-4-yl)methyl)piperazin-1-yl)methyl)-3-methyl-2-oxo-2,3-dihydro-1H-benzo[d]imidazol-1-yl)piperidine-2,6-dione] | 8.11 | 1.6 nM |  | 
C[C@H]1CN(Cc2ccc3c(c2)n(C)c(=O)n3C2CCC(=O)NC2=O)CCN1CC1CCN(C(=O)c2ccc(C3CCN([C@@H](C)c4cc5c(-c6ccc(N)nn6)ccnc5n4C)CC3)cc2)CC1 (stereo partly drawn) [Example 3e52, 3-(5-(((S)-4-((1-(4-(1-((S)-1-(4-(6-aminopyridazin-3-yl)-1-methyl-1H-pyrrolo[2,3-b]pyridin-2-yl)ethyl)piperidin-4-yl)benzoyl)piperidin-4-yl)methyl)-3-methylpiperazin-1-yl)methyl)-3-methyl-2-oxo-2,3-dihydro-1H-benzo[d]imidazol-1-yl)piperidine-2,6-dione] |  |  | 1.5 | 0.9
C[C@H]1CN(Cc2ccc3c(c2)n(C2CC2)c(=O)n3C2CCC(=O)NC2=O)CCN1CC1CCN(C(=O)c2ccc(C3CCN(Cc4cc5c(-c6ccc(N)nc6)ccnc5n4C)CC3)cc2)CC1 (stereo partly drawn) [Example 3e13, 3-(5-(((S)-4-((1-(4-(1-((4-(6-aminopyridin-3-yl)-1-methyl-1H-pyrrolo[2,3-b]pyridin-2-yl)methyl)piperidin-4-yl)benzoyl)piperidin-4-yl)methyl)-3-methylpiperazin-1-yl)methyl)-3-cyclopropyl-2-oxo-2,3-dihydro-1H-benzo[d]imidazol-1-yl)piperidine-2,6-dione] | 7.42 | 0.9 nM and 1.1 nM |  | 

More lines, main results first:

pEC50 (eotaxin-3 release) | DC50 (STAT6; [1]) | SMILES | EC50 (eotaxin-3 release; Homo sapiens, 48 h, read-out: Eotaxin-3 EC50 (nM)) [nM] | DC50 (STAT6; read-out: STAT6 degradation DC50; HeLa LgBiT clone 4.14, 4-24 h; geometric mean; given for compounds with >80% Emax) [nM]
8.22 | 2.7 nM | C[C@@H](c1cc2c(-c3ccc(N)nc3)ccnc2n1C)N1CCC(c2ccc(C(=O)N3CCC(CN4CCN(Cc5ccc6c(c5)oc(=O)n6C5CCC(=O)NC5=O)CC4)CC3)cc2)CC1 (stereo partly drawn) [Example 3n5, 3-(6-((4-((1-(4-(1-((S)-1-(4-(6-aminopyridin-3-yl)-1-methyl-1H-pyrrolo[2,3-b]pyridin-2-yl)ethyl)-piperidin-4-yl)benzoyl)piperidin-4-yl)methyl)piperazin-1-yl)methyl)-2-oxobenzo[d]oxazol-3 (2H)-yl)piperidine-2,6-dione] |  | 
8.68 | 0.8 nM | C[C@H]1CN(Cc2ccc3c(c2)n(C)c(=O)n3C2CCC(=O)NC2=O)CCN1CC1(F)CCN(C(=O)c2ccc(C3CCN([C@@H](C)c4cc5c(-c6ccc(N)nc6)ccnc5n4C)CC3)cc2)CC1 (stereo partly drawn) [Example 3e45, 3-(5-(((S)-4-((1-(4-(1-((S)-1-(4-(6-aminopyridin-3-yl)-1-methyl-1H-pyrrolo[2,3-b]pyridin-2-yl)ethyl)piperidin-4-yl)benzoyl)-4-fluoropiperidin-4-yl)methyl)-3-methylpiperazin-1-yl)methyl)-3-methyl-2-oxo-2,3-dihydro-1H-benzo[d]imidazol-1-yl)piperidine-2,6-dione] |  | 
8.42 | 0.5 nM | C[C@H]1CN(Cc2ccc3c(c2)n(C)c(=O)n3C2CCC(=O)NC2=O)CCN1CC1CCN(C(=O)c2ccc(C3CCN([C@@H](C)c4cc5c(-c6ccc(NCCO)nc6)ccnc5n4C)CC3)cc2)CC1 (stereo partly drawn) [Example 3e40, 3-(5-(((S)-4-((1-(4-(1-((S)-1-(4-(6-((2-hydroxyethyl)amino)pyridin-3-yl)-1-methyl-1H-pyrrolo[2,3-b]pyridin-2-yl)ethyl)piperidin-4-yl)benzoyl)piperidin-4-yl)methyl)-3-methylpiperazin-1-yl)methyl)-3-methyl-2-oxo-2,3-dihydro-1H-benzo[d]imidazol-1-yl)piperidine-2,6-dione] |  | 
8.85 | 0.2 nM | C[C@H]1CN(Cc2ccc3c(c2)n(C)c(=O)n3C2CCC(=O)NC2=O)CCN1CC1CCN(C(=O)c2ccc(C3CCN([C@@H](C)c4cc5c(-c6ccc7[nH]c(=O)n(C)c7c6)ccnc5n4C)CC3)cc2)CC1 (stereo partly drawn) [Example 3e37, 3-(3-methyl-5-(((S)-3-methyl-4-((1-(4-(1-((S)-1-(1-methyl-4-(3-methyl-2-oxo-2,3-dihydro-1H-benzo[d]imidazol-5-yl)-1H-pyrrolo[2,3-b]pyridin-2-yl)ethyl)piperidin-4-yl)benzoyl)piperidin-4-yl)methyl)piperazin-1-yl)methyl)-2-oxo-2,3-dihydro-1H-benzo[d]imidazol-1-yl)piperidine-2,6-dione] |  | 
8.24 | 1.8 nM | CNc1ccc(-c2ccnc3c2cc([C@H](C)N2CCC(c4ccc(C(=O)N5CCC(CN6CCN(Cc7ccc8c(c7)n(C7CC7)c(=O)n8[C@@H]7CCC(=O)NC7=O)C[C@@H]6C)CC5)cc4)CC2)n3C)cn1 (single isomer, unassigned) [Example 3h27] |  | 
8.96 | 0.2 nM | COC[C@H]1CN(Cc2ccc3c(c2)n(C)c(=O)n3C2CCC(=O)NC2=O)CCN1CC1CCN(C(=O)c2ccc(C3CCN([C@@H](C)c4cc5c(-c6ccc(N)nc6)ccnc5n4C)CC3)cc2)CC1 (stereo partly drawn) [Example 3e28, 3-(5-(((R)-4-((1-(4-(1-((S)-1-(4-(6-aminopyridin-3-yl)-1-methyl-1H-pyrrolo[2,3-b]pyridin-2-yl)ethyl)piperidin-4-yl)benzoyl)piperidin-4-yl)methyl)-3-(methoxymethyl)piperazin-1-yl)methyl)-3-methyl-2-oxo-2,3-dihydro-1H-benzo[d]imidazol-1-yl)piperidine-2,6-dione] |  | 
8.38 | 0.8 nM | CC[C@H]1CN(Cc2ccc3c(c2)n(C)c(=O)n3C2CCC(=O)NC2=O)CCN1CC1CCN(C(=O)c2ccc(C3CCN([C@@H](C)c4cc5c(-c6ccc(N)nc6)ccnc5n4C)CC3)cc2)CC1 (stereo partly drawn) [Example 3e23, 3-(5-(((S)-4-((1-(4-(1-((S)-1-(4-(6-aminopyridin-3-yl)-1-methyl-1H-pyrrolo[2,3-b]pyridin-2-yl)ethyl)piperidin-4-yl)benzoyl)piperidin-4-yl)methyl)-3-ethylpiperazin-1-yl)methyl)-3-methyl-2-oxo-2,3-dihydro-1H-benzo[d]imidazol-1-yl)piperidine-2,6-dione] |  | 

Source: patent US20250325677A1, “STAT6 DEGRADERS” (Gilead Sciences, Inc., priority 2024, published 2025)
